According to ChEMBL document CHEMBL1201862, “PubChem BioAssay data set” (2004):
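Method: 48-hour compound exposure of cells in 96-well plates, five concentrations, linear interpolation of endpoints. GI50 marks 50% less growth.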 Calls of active or inactive are those of the source. Cut-off read from the data, not from the text of the source: active = GI50 up to about 1.1 µM and inactive = higher.

Key:
Assay in all cases: NCI-60 cell line screen, 48 h
[1] = system: 786-0
[2] = system: ACHN
[3] = system: HL-60
[4] = system: IGROV-1
[5] = system: KM12
[6] = system: MDA-MB-231
[7] = system: MDA-MB-435
[8] = system: Malme-3M
[9] = system: NCI-H226
[10] = system: NCI-H23
[11] = system: OVCAR-5
[12] = system: PC-3
[13] = system: RPMI-8226
[14] = system: RXF 393
[15] = system: SNB-19
[16] = system: U-251
[17] = system: A498
[18] = system: HCC 2998
[19] = system: Hs-578T
[20] = system: SF-539

| Structure (SMILES) | GI50 [1] | GI50 [2] | GI50 [3] | GI50 [4] | GI50 [5] | GI50 [6] | GI50 [7] | GI50 [8] | GI50 [9] | GI50 [10] | GI50 [11] | GI50 [12] | GI50 [13] | GI50 [14] | GI50 [15] | GI50 [16] | GI50 [17] | GI50 [18] | GI50 [19] | GI50 [20] |
| --- | --- | --- | --- | --- | --- | --- | --- | --- | --- | --- | --- | --- | --- | --- | --- | --- | --- | --- | --- | --- |
| Cc1ccc(CCCC(=O)O)cc1C | > 100 µM (inactive) | > 100 µM (inactive) | > 100 µM (inactive) | > 100 µM (inactive) | > 100 µM (inactive) | > 100 µM (inactive) | > 100 µM (inactive) | > 100 µM (inactive) | > 100 µM (inactive) | > 100 µM (inactive) | > 100 µM (inactive) | > 100 µM (inactive) | > 100 µM (inactive) | > 100 µM (inactive) | > 100 µM (inactive) | > 100 µM (inactive) | – | – | – | – |
| O=C1CSc2ccnc(=O)n21 | > 100 µM (inactive) | > 100 µM (inactive) | > 100 µM (inactive) | > 100 µM (inactive) | – | – | > 100 µM (inactive) | > 100 µM (inactive) | – | > 100 µM (inactive) | > 100 µM (inactive) | > 100 µM (inactive) | > 100 µM (inactive) | > 100 µM (inactive) | > 100 µM (inactive) | > 100 µM (inactive) | > 100 µM (inactive) | > 100 µM (inactive) | > 100 µM (inactive) | > 100 µM (inactive) |
| COc1cc(C2c3c(ccc4ccccc34)C(=O)C3CCC(=O)N32)cc(OC)c1O (stereo unspecified) | > 25 µM (inactive) | > 25 µM (inactive) | > 25 µM (inactive) | > 25 µM (inactive) | > 25 µM (inactive) | – | > 25 µM (inactive) | – | > 25 µM (inactive) | > 25 µM (inactive) | > 25 µM (inactive) | > 25 µM (inactive) | > 25 µM (inactive) | > 25 µM (inactive) | > 25 µM (inactive) | > 25 µM (inactive) | > 25 µM (inactive) | – | – | > 25 µM (inactive) |
| CCC(=O)C(C)C1=Nc2nnc(CCCCCCCc3nnc4n3C(=O)C(C(C)C(=O)CC)=N4)n2C1=O (stereo unspecified) | > 100 µM (inactive) | > 100 µM (inactive) | > 100 µM (inactive) | > 100 µM (inactive) | > 100 µM (inactive) | – | – | > 100 µM (inactive) | > 100 µM (inactive) | > 100 µM (inactive) | > 100 µM (inactive) | – | > 100 µM (inactive) | > 100 µM (inactive) | > 100 µM (inactive) | > 100 µM (inactive) | > 100 µM (inactive) | > 100 µM (inactive) | – | > 100 µM (inactive) |
| O=C(C(=C(I)I)c1ccccc1)c1ccccc1 | > 10 µM (inactive) | 29.7 µM (inactive) | 13.2 µM (inactive) | 8.63 µM (inactive) | – | – | 31.1 µM (inactive) | 19.7 µM (inactive) | – | 21 µM (inactive) | 86.3 µM (inactive) | 28.4 µM (inactive) | 19.5 µM (inactive) | – | 29.9 µM (inactive) | – | 13.1 µM (inactive) | > 10 µM (inactive) | 16.1 µM (inactive) | 24.8 µM (inactive) |
| COC1(OC)CC2C(=O)N(Cc3ccccc3)C1C(S(=O)(=O)c1ccccc1)C2S(=O)(=O)c1ccccc1 (stereo unspecified) | 16.9 µM (inactive) | 10.6 µM (inactive) | 3.87 µM (inactive) | 17.2 µM (inactive) | 16.4 µM (inactive) | – | – | 15.6 µM (inactive) | 19.7 µM (inactive) | 13.6 µM (inactive) | 19.9 µM (inactive) | – | 15.9 µM (inactive) | 12.6 µM (inactive) | > 100 µM (inactive) | 13.6 µM (inactive) | 18.2 µM (inactive) | 17.1 µM (inactive) | – | 14 µM (inactive) |
| COc1ccc2c(c1)CC[C@@H]1[C@@H]2CC[C@]2(C)C(=O)/C(=C/c3ccc(OC)c(OC)c3)C[C@@H]12 | > 100 µM (inactive) | > 100 µM (inactive) | > 100 µM (inactive) | – | > 100 µM (inactive) | > 100 µM (inactive) | > 100 µM (inactive) | > 100 µM (inactive) | – | 97.9 µM (inactive) | > 100 µM (inactive) | > 100 µM (inactive) | 56.2 µM (inactive) | > 100 µM (inactive) | > 100 µM (inactive) | > 100 µM (inactive) | > 100 µM (inactive) | > 100 µM (inactive) | – | > 100 µM (inactive) |
| NC1=C(O)c2cccc3cccc(c23)C1=O | > 100 µM (inactive) | > 100 µM (inactive) | > 100 µM (inactive) | > 100 µM (inactive) | > 100 µM (inactive) | – | – | > 100 µM (inactive) | 35.9 µM (inactive) | > 100 µM (inactive) | > 100 µM (inactive) | – | > 100 µM (inactive) | > 100 µM (inactive) | > 100 µM (inactive) | > 100 µM (inactive) | > 100 µM (inactive) | > 100 µM (inactive) | – | > 100 µM (inactive) |
| CC(=O)/C(=N\O)C(=O)Nc1ccc(Cl)cc1Cl | > 100 µM (inactive) | > 100 µM (inactive) | > 100 µM (inactive) | > 100 µM (inactive) | > 100 µM (inactive) | – | – | > 100 µM (inactive) | > 100 µM (inactive) | > 100 µM (inactive) | > 100 µM (inactive) | – | > 100 µM (inactive) | > 100 µM (inactive) | > 100 µM (inactive) | > 100 µM (inactive) | > 100 µM (inactive) | > 100 µM (inactive) | – | > 100 µM (inactive) |
| Cc1cccc(Nc2cn(CCOc3ccccc3)c(=O)n(CCOc3ccccc3)c2=O)c1 | > 100 µM (inactive) | > 100 µM (inactive) | – | 23.3 µM (inactive) | > 100 µM (inactive) | – | > 100 µM (inactive) | – | – | > 100 µM (inactive) | > 100 µM (inactive) | > 100 µM (inactive) | 67.5 µM (inactive) | > 100 µM (inactive) | > 100 µM (inactive) | > 100 µM (inactive) | > 100 µM (inactive) | > 100 µM (inactive) | > 100 µM (inactive) | – |
| CC(C)=CCC/C(C)=C/COC(C)(C)C1=CCC(C)CC1.CC(C)=CCC/C(C)=C/COC1CC(C)CCC1=C(C)C (stereo unspecified) | > 100 µM (inactive) | > 100 µM (inactive) | 22 µM (inactive) | > 100 µM (inactive) | > 100 µM (inactive) | – | > 100 µM (inactive) | > 100 µM (inactive) | – | > 100 µM (inactive) | > 100 µM (inactive) | > 100 µM (inactive) | 36.7 µM (inactive) | > 100 µM (inactive) | > 100 µM (inactive) | > 100 µM (inactive) | > 100 µM (inactive) | > 100 µM (inactive) | > 100 µM (inactive) | 6.07 µM (inactive) |
| CCCCCCCCCCC(=O)CCCCCCC(=O)O | 18.8 µM (inactive) | 21.5 µM (inactive) | 4.23 µM (inactive) | 19.2 µM (inactive) | 15.5 µM (inactive) | – | – | 20.8 µM (inactive) | 32.8 µM (inactive) | 30.1 µM (inactive) | 16.3 µM (inactive) | – | 13.4 µM (inactive) | 36.3 µM (inactive) | 42.1 µM (inactive) | 20.7 µM (inactive) | 20.1 µM (inactive) | 17.1 µM (inactive) | – | 18.1 µM (inactive) |
| COc1cc([C@@H]2c3cc4c(cc3[C@@H](NC(=O)c3ccc(OC(C)=O)cc3)C3COC(=O)[C@@H]32)OCO4)cc(OC)c1O (stereo partly specified) | 1.22 µM (inactive) | 0.689 µM (active) | 0.153 µM (active) | 0.258 µM (active) | 2.66 µM (inactive) | – | – | 2.43 µM (inactive) | 0.798 µM (active) | 0.9 µM (active) | 4.36 µM (inactive) | – | 1.32 µM (inactive) | 11.4 µM (inactive) | 2.16 µM (inactive) | 0.308 µM (active) | 2.22 µM (inactive) | 3.27 µM (inactive) | – | 0.406 µM (active) |
| O=C(O)C(C1NCCS1)N1Cc2ccccc2C1 (stereo unspecified) | > 100 µM (inactive) | > 100 µM (inactive) | > 100 µM (inactive) | > 100 µM (inactive) | > 100 µM (inactive) | > 100 µM (inactive) | > 100 µM (inactive) | > 100 µM (inactive) | > 100 µM (inactive) | > 100 µM (inactive) | > 100 µM (inactive) | > 100 µM (inactive) | > 100 µM (inactive) | > 100 µM (inactive) | > 100 µM (inactive) | > 100 µM (inactive) | > 100 µM (inactive) | – | – | > 100 µM (inactive) |
| COc1nc2c(c(=O)[nH]1)N=C(c1ccccc1)CC(c1ccccc1)N2 (stereo unspecified) | 37.7 µM (inactive) | 30.3 µM (inactive) | > 10 µM (inactive) | 61.4 µM (inactive) | 30.7 µM (inactive) | 33 µM (inactive) | 59.7 µM (inactive) | 72.9 µM (inactive) | 72.6 µM (inactive) | 74.3 µM (inactive) | > 100 µM (inactive) | 57.9 µM (inactive) | 27.2 µM (inactive) | 31 µM (inactive) | > 100 µM (inactive) | 44.9 µM (inactive) | > 100 µM (inactive) | 54.5 µM (inactive) | – | 48.1 µM (inactive) |
| C=C1CC/C=C(\C)C(=O)C[C@@H]2[C@@H]1CC2(C)C [BUDDLEDIN C] | 0.975 µM (active) | 2.18 µM (inactive) | 0.129 µM (active) | 3.26 µM (inactive) | 15 µM (inactive) | 7.53 µM (inactive) | 1.43 µM (inactive) | 2.48 µM (inactive) | 14.8 µM (inactive) | 5.2 µM (inactive) | 9.46 µM (inactive) | 9.14 µM (inactive) | 2.02 µM (inactive) | 1.85 µM (inactive) | 12.6 µM (inactive) | 6.79 µM (inactive) | 8.59 µM (inactive) | 3.4 µM (inactive) | – | 2.31 µM (inactive) |
